Laboratory results: patent US20230404989A1, “GRK2 INHIBITION BY PAROXETINE AMELIORATES OSTEOARTHRITIS” (THE PENN STATE RESEARCH FOUNDATION, priority 2020, published 2023)

Assays:
[1] = test system: DMM mice; assay: Micro-CT assessment of knee joint and subchondral bone in DMM mice; type: in vivo, mouse; settings: daily ip week 8 to 12
Protocol: Drug treatment studies: In twelve-week old male wild type C57BL/6 mice that received DMM surgeries, vehicle (PBS), paroxetine (5 mg/kg/day), fluoxetine (5 mg/kg/day), gallein (10 mg/kg/day) or indomethacin (2.5 mg/kg/day) were administered daily by ip injection. Drug treatment was initiated 8 weeks following DMM to determine the role of GRK2 signaling in the progression of OA. Prior to histologic processing, harvested knee joints were evaluated via micro-CT using a Scanco vivaCT40 scanner with a 55 kVp source as we have previously described. Joints were scanned at a resolution of 10.5 μm. General 3-dimensional images were obtained with simple segmentation at a Scanco threshold of 260, which was determined on inspection of the first specimen. This translates to a linear attenuation coefficient of 2.080 cm-1. Knee analysis starts by locating the highest section of the tibial plateau and defining that as the center point. All bone is captured 100 slices in each direction from the center point. The patella and fibula, if present in that region, are excluded. The fabellae are considered part of the knee and are included. A threshold of 260 (2.080 cm′) is used to analyze bone volume and microarchitecture. Tibia subchondral analysis begins by starting at the knee and proceeding distally until the cortical shell is penetrated. All non-cortical bone is included, both solid and trabecular. Osteophytes were identified as protrusions and counted using cross-sectional images of the 3-dimensional stacks. Subchondral plate thickness was calculated by determining the number of cross-sections forming the subchondral plate and multiplying it by section thickness (C. Huesa, Annals of the rheumatic diseases, 75, 1989-1997 (2016)).

[2] = test system: human OA cartilage; assay: Ex vivo cultured human OA osteochondral plugs: IF staining and RT-qPCR; type: cell-based; settings: paroxetine 5 μM or gallein 10 μM, 48 hrs
Text: An Institutional Review Board-approved protocol was executed to collect discarded de-identified cartilage from patients. For the experiment described in FIG. 3A, we obtained acutely injured human cartilage (from patients undergoing arthroscopic surgery 4 weeks following meniscal injury, N=6) and OA cartilage (from patients undergoing arthroplasty, N=6). Normal controls were obtained from amputees' knees (N=6). Cartilage was fixed in formalin then processed and embedded in paraffin, 5-μm sections were used for immunofluorescence (IF) staining. For the experiment described in FIG. 7, OA osteochondral tissue was collected from patients undergoing total knee arthroplasty. Osteochondral plugs (8-mm diameter) were obtained and bone was flushed with saline solution to remove all bone marrow and blood cells. Plugs were then cultured overnight in low glucose DMEM at 5% CO2 and 37° C. The next morning plugs were treated with either vehicle phosphate buffer saline (PBS), paroxetine (5 μM), or gallein (10 μM), and the drug-containing culture medium was replenished after 24 hrs. After 48 hrs, plugs were fixed for 7 days in 10% neutral buffered formalin (NBF), decalcified for 2 weeks in 10% w/v EDTA, embedded in paraffin, and […] were cut and mounted for histological and IF staining. Alternatively, the cartilage was shaved from plugs and flash-frozen in liquid nitrogen for RNA extraction as described below. mRNA was isolated from human cartilage using the method we published recently, yielding RNA Integrity Number (RIN) values above 7.0 (53). cDNA was prepared using Iscript cDNA synthesis kit from Bio-rad following the manufacturer's protocol. cDNAs were qPCR amplified using TaqMan Gene Expression Assays, with GAPDH as the house keeping gene (ThermoFisher Scientific; described in Table 2) and the 7500 Fast Real-Time PCR System (Applied Biosystems). Paraffin sections were deparaffinized in three changes of xylene for five minutes each, rehydrated in ethanol (two changes of 100% ethanol, followed by two changes of 95% ethanol, followed by one change of 70% ethanol) and rinsed twice in deionized water. Antigen retrieval was performed for 30 minutes at 37° C. using 0.4% pepsin (Sigma P-7000) in 0.1M hydrochloric acid (HCl) and was followed by permeabilization for 30 minutes at room temperature using Triton X in tris buffered saline (TBS). Sections were then blocked for 1 hour at room temperature in 10% normal goat serum in 1×TBS. Tissue sections were incubated overnight at 4° C. with the rabbit anti-mouse primary antibody specific for the target protein (detailed in Table 1).

[3] = test system: Gas activity (cAMP content in cartilage); assay: cAMP assay in tibial articular cartilage of drug-treated DMM mice; type: in vivo, mouse
Protocol: Drug treatment studies: In twelve-week old male wild type C57BL/6 mice that received DMM surgeries, vehicle (PBS), paroxetine (5 mg/kg/day), fluoxetine (5 mg/kg/day), gallein (10 mg/kg/day) or indomethacin (2.5 mg/kg/day) were administered daily by ip injection. Drug treatment was initiated 8 weeks following DMM to determine the role of GRK2 signaling in the progression of OA. Short term drug treatment study: To evaluate the acute effect of drug treatments, GRK2^f/f mice received sham or DMM surgery followed by treatment with vehicle, paroxetine, gallein, fluoxetine, or indomethacin with the doses indicated above for 1 week beginning at 8 weeks post DMM. All mice were sacrificed 9 weeks post DMM, 21 weeks of age, for analysis of OA progression. Gas activity was measured by quantifying cAMP content in cartilage pooled from 3 mice. Tibial cartilage was dissected out and snap frozen in liquid Nitrogen. As positive control, tibial cartilage obtained from normal mice was treated with 0.5 mM 3-isobutyl-1-methylxanthine (IBMX) for 30 minutes, followed by 0.1 mM Forskolin for 15 minutes, then snap frozen in liquid Nitrogen. For human cartilage cAMP content, 70 mg frozen cartilage were used. Frozen cartilage was pulverized using 500 μL lysis buffer as we have previously described (H. K. Le Bleu, Anal Biochem, 518, 134-138 (2017)). cAMP content was quantified using the Cyclic AMP XP Assay kit (Cell Signaling, #4339) and following manufacturer's protocol, with 0.5 mM IBMX added to the lysis buffer to prevent phosphodiesterase mediated cAMP degradation during the extraction process. cAMP levels in different groups were normalized to that of sham mice or the vehicle treated human cartilage.

[4] = 7 days of drug treatment from 8 weeks post-DMM

Compound	higher osteophyte number [1]	higher subchondral bone mineral density (BMD) [1]	higher subchondral bone volume density (BV/TV) [1]	higher subchondral plate thickness [1]	higher subchondral trabecular thickness (Tb.Th) [1]	increased knee bone volume (BV) [1]	increased knee total volume (TV) [1]	ADAMTS5 mRNA expression (RT-qPCR) [2]	ADAMTS5 protein expression (IF staining) [2]	GRK2 mRNA expression (RT-qPCR) [2]	GRK2 protein expression (IF staining) [2]	MMP13 mRNA expression (RT-qPCR) [2]	MMP13 protein expression (IF staining) [2]	cAMP levels in the articular cartilage [3, 4]	cAMP levels in the articular cartilage ([3]; daily ip week 8 to 12)
O=C1OC2(c3ccccc31)c1ccc(O)c(O)c1Oc1c2ccc(O)c1O [gallein]	alleviated	alleviated	alleviated	alleviated	alleviated	ameliorated	ameliorated	did not achieve statistical significance	attenuated	not affected	reduced	did not achieve statistical significance	attenuated	restored	restored
Fc1ccc([C@@H]2CCNC[C@H]2COc2ccc3c(c2)OCO3)cc1 [paroxetine]	alleviated	alleviated	alleviated	alleviated	alleviated	ameliorated	ameliorated	significantly inhibited	significantly inhibited	not affected	reduced	significantly inhibited	significantly inhibited	restored	restored
